Measurements: PubChem BioAssay AID2060504 (Molecular Pharmacology Branch, DTP, NCI, 2025)

Tested on: 636577-100-R-J1-PDC complex spheroid viability
Assay: Anticancer human tumor 636577-100-R-J1-PDC patient-derived endometrial adenocarcinoma cell line growth inhibition [GQUAD]
Conditions: for IC50: curve of first compound; for viability, T/C: stronger effect = lower value; active = viability on the fitted dose curve at most 10% of control; inactive = the rest
Method in brief: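 Multi-cell-type spheroids of tumor cells with HUVEC and mesenchymal stem cells, treated with drug combinations. Concentrations descend in half-log steps from near clinical Cmax, or from 10 microM where Cmax is unknown; viability read-out.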

[1] = second compound 0.0316 µM, first compound 0.0316 µM
[2] = second compound 0.0316 µM, first compound 0.1 µM
[3] = second compound 0.0316 µM, first compound 0.316 µM
[4] = second compound 0.0316 µM, first compound 1 µM
[5] = second compound 0.0316 µM, first compound 3.16 µM
[6] = second compound 0.0316 µM, first compound 10 µM
[7] = second compound 0.1 µM, first compound 0.0316 µM
[8] = second compound 0.1 µM, first compound 0.1 µM
[9] = second compound 0.1 µM, first compound 0.316 µM
[10] = second compound 0.1 µM, first compound 1 µM
[11] = second compound 0.1 µM, first compound 3.16 µM
[12] = second compound 0.1 µM, first compound 10 µM
[13] = second compound 0.316 µM, first compound 0.0316 µM
[14] = second compound 0.316 µM, first compound 0.1 µM
[15] = second compound 0.316 µM, first compound 0.316 µM
[16] = second compound 0.316 µM, first compound 1 µM
[17] = second compound 0.316 µM, first compound 3.16 µM
[18] = second compound 0.316 µM, first compound 10 µM
[19] = second compound 1 µM, first compound 0.0316 µM
[20] = second compound 1 µM, first compound 0.1 µM
[21] = second compound 1 µM, first compound 0.316 µM
[22] = second compound 1 µM, first compound 1 µM
[23] = second compound 1 µM, first compound 3.16 µM
[24] = second compound 1 µM, first compound 10 µM
[25] = second compound 3.16 µM, first compound 0.0316 µM
[26] = second compound 3.16 µM, first compound 0.1 µM
[27] = second compound 3.16 µM, first compound 0.316 µM
[28] = second compound 3.16 µM, first compound 1 µM
[29] = second compound 3.16 µM, first compound 3.16 µM
[30] = second compound 3.16 µM, first compound 10 µM
[31] = second compound 10 µM, first compound 0.0316 µM
[32] = second compound 10 µM, first compound 0.1 µM
[33] = second compound 10 µM, first compound 0.316 µM
[34] = second compound 10 µM, first compound 1 µM
[35] = second compound 10 µM, first compound 3.16 µM
[36] = second compound 10 µM, first compound 10 µM
[37] = second compound 0.0316 µM, first compound 0.000999 µM
[38] = second compound 0.0316 µM, first compound 0.00316 µM
[39] = second compound 0.0316 µM, first compound 0.00999 µM
[40] = second compound 0.0316 µM, first compound 0.0999 µM
[41] = second compound 0.1 µM, first compound 0.000999 µM
[42] = second compound 0.1 µM, first compound 0.00316 µM
[43] = second compound 0.1 µM, first compound 0.00999 µM
[44] = second compound 0.1 µM, first compound 0.0999 µM
[45] = second compound 0.316 µM, first compound 0.000999 µM
[46] = second compound 0.316 µM, first compound 0.00316 µM
[47] = second compound 0.316 µM, first compound 0.00999 µM
[48] = second compound 0.316 µM, first compound 0.0999 µM
[49] = second compound 1 µM, first compound 0.000999 µM
[50] = second compound 1 µM, first compound 0.00316 µM
[51] = second compound 1 µM, first compound 0.00999 µM
[52] = second compound 1 µM, first compound 0.0999 µM
[53] = second compound 3.16 µM, first compound 0.000999 µM
[54] = second compound 3.16 µM, first compound 0.00316 µM
[55] = second compound 3.16 µM, first compound 0.00999 µM
[56] = second compound 3.16 µM, first compound 0.0999 µM
[57] = second compound 10 µM, first compound 0.000999 µM
[58] = second compound 10 µM, first compound 0.00316 µM
[59] = second compound 10 µM, first compound 0.00999 µM
[60] = second compound 10 µM, first compound 0.0999 µM
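Note: viability read after seven days of drug exposure.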
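Throughout, for viability, T/C: luminescence signal used as a proxy for viable cells; 100% = DMSO vehicle control wells.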

C=CC(=O)N1CCN(c2nc(=O)n(-c3c(C)ccnc3C(C)C)c3nc(-c4c(O)cccc4F)c(F)cc23)C(C)C1 (stereo not drawn) + CN(C)c1ccc(Nc2c3ccc(NC(=O)CCN4CCCC4)cc3nc3cc(NC(=O)CCN4CCCC4)ccc23)cc1
> 10000 nM: IC50 (second compound 0.0316 µM) | IC50 (second compound 0.1 µM) | IC50 (second compound 0.316 µM) | IC50 (second compound 1 µM)
< 31.6 nM: IC50 (second compound 3.16 µM) | IC50 (second compound 10 µM)
active: viability, T/C [31] 6.52% | viability, T/C [32] 5.91% | viability, T/C [33] 6.86% | viability, T/C [34] 6.43% | viability, T/C [35] 3.58% | viability, T/C [36] 0.96%
inactive: viability, T/C [1] 82.5% | viability, T/C [2] 60.8% | viability, T/C [3] 114% | viability, T/C [4] 75.2% | viability, T/C [5] 91.9% | viability, T/C [6] 64.8% | viability, T/C [7] 73.5% | viability, T/C [8] 67.1% | viability, T/C [9] 78.9% | viability, T/C [10] 73% | viability, T/C [11] 108% | viability, T/C [12] 75.6% | viability, T/C [13] 79.5% | viability, T/C [14] 63.9% | viability, T/C [15] 88% | viability, T/C [16] 81.2% | viability, T/C [17] 97.5% | viability, T/C [18] 67.4% | viability, T/C [19] 85.9% | viability, T/C [20] 54.3% | viability, T/C [21] 76.3% | viability, T/C [22] 96.9% | viability, T/C [23] 94.5% | viability, T/C [24] 60.3% | viability, T/C [25] 42% | viability, T/C [26] 43.9% | viability, T/C [27] 35.4% | viability, T/C [28] 53.6% | viability, T/C [29] 43.7% | viability, T/C [30] 28.9%

CCc1c2c(nc3ccc(O)cc13)-c1cc3c(c(=O)n1C2)COC(=O)[C@]3(O)CC + CN(C)c1ccc(Nc2c3ccc(NC(=O)CCN4CCCC4)cc3nc3cc(NC(=O)CCN4CCCC4)ccc23)cc1
inactive: viability, T/C [37] 46.8% | viability, T/C [38] 23.4% | viability, T/C [39] 26% | viability, T/C [1] 16.6% | viability, T/C [40] 17.7% | viability, T/C [3] 12.4% | viability, T/C [41] 43.7% | viability, T/C [42] 21.6% | viability, T/C [43] 22.2% | viability, T/C [7] 18.1% | viability, T/C [44] 17% | viability, T/C [9] 12.9% | viability, T/C [45] 41.9% | viability, T/C [46] 23.1% | viability, T/C [47] 20.3% | viability, T/C [13] 21.1% | viability, T/C [48] 19.2% | viability, T/C [15] 13.2% | viability, T/C [49] 39.4% | viability, T/C [50] 21.4% | viability, T/C [51] 24.2% | viability, T/C [19] 22.6% | viability, T/C [52] 19.4% | viability, T/C [21] 13.4% | viability, T/C [53] 29.8% | viability, T/C [54] 22% | viability, T/C [55] 19.5% | viability, T/C [25] 18.4% | viability, T/C [56] 16.8% | viability, T/C [27] 9.28%
active: viability, T/C [57] 4.84% | viability, T/C [58] 4.42% | viability, T/C [59] 4.45% | viability, T/C [31] 4.23% | viability, T/C [60] 4.1% | viability, T/C [33] 2.29%
< 0.999 nM: IC50 (second compound 0.0316 µM) | IC50 (second compound 0.1 µM) | IC50 (second compound 0.316 µM) | IC50 (second compound 1 µM) | IC50 (second compound 3.16 µM) | IC50 (second compound 10 µM)

Cc1cccc(N(C)C(=O)C2C(O)CCN2c2nc(C)cc(C(F)(F)F)c2C#N)c1 (stereo not drawn) + CN(C)c1ccc(Nc2c3ccc(NC(=O)CCN4CCCC4)cc3nc3cc(NC(=O)CCN4CCCC4)ccc23)cc1
> 10000 nM: IC50 (second compound 0.0316 µM) | IC50 (second compound 0.1 µM) | IC50 (second compound 0.316 µM) | IC50 (second compound 1 µM)
active: viability, T/C [31] 7.75% | viability, T/C [32] 6.99% | viability, T/C [33] 4.7% | viability, T/C [34] 4.67% | viability, T/C [35] 2.93% | viability, T/C [36] 0.73%
inactive: viability, T/C [1] 78% | viability, T/C [2] 78.9% | viability, T/C [3] 97.2% | viability, T/C [4] 102% | viability, T/C [5] 92.1% | viability, T/C [6] 86% | viability, T/C [7] 105% | viability, T/C [8] 73.6% | viability, T/C [9] 89.7% | viability, T/C [10] 92.8% | viability, T/C [11] 92.8% | viability, T/C [12] 82.9% | viability, T/C [13] 80.6% | viability, T/C [14] 79.7% | viability, T/C [15] 91.3% | viability, T/C [16] 88.5% | viability, T/C [17] 96.9% | viability, T/C [18] 78.3% | viability, T/C [19] 78.1% | viability, T/C [20] 87.2% | viability, T/C [21] 78.6% | viability, T/C [22] 71.5% | viability, T/C [23] 76.4% | viability, T/C [24] 57.4% | viability, T/C [25] 34.9% | viability, T/C [26] 47.4% | viability, T/C [27] 45.8% | viability, T/C [28] 31.6% | viability, T/C [29] 30.1% | viability, T/C [30] 27.2%
< 31.6 nM: IC50 (second compound 3.16 µM) | IC50 (second compound 10 µM)

Cn1ncnc1[C@H]1c2n[nH]c(=O)c3cc(F)cc(c23)N[C@@H]1c1ccc(F)cc1 + CN(C)c1ccc(Nc2c3ccc(NC(=O)CCN4CCCC4)cc3nc3cc(NC(=O)CCN4CCCC4)ccc23)cc1
42.7 nM: IC50 (second compound 0.0316 µM)
active: viability, T/C [57] 7.06% | viability, T/C [58] 7.39% | viability, T/C [59] 6.25% | viability, T/C [31] 5.78% | viability, T/C [60] 5.88% | viability, T/C [33] 4.9%
34.6 nM: IC50 (second compound 0.316 µM)
inactive: viability, T/C [37] 95.1% | viability, T/C [38] 78.8% | viability, T/C [39] 84.6% | viability, T/C [1] 50.4% | viability, T/C [40] 42.2% | viability, T/C [3] 29% | viability, T/C [41] 102% | viability, T/C [42] 73% | viability, T/C [43] 56.1% | viability, T/C [7] 51.4% | viability, T/C [44] 46.7% | viability, T/C [9] 23% | viability, T/C [45] 81.9% | viability, T/C [46] 63.7% | viability, T/C [47] 59.3% | viability, T/C [13] 49.7% | viability, T/C [48] 48.6% | viability, T/C [15] 37.8% | viability, T/C [49] 63.2% | viability, T/C [50] 63.6% | viability, T/C [51] 61.2% | viability, T/C [19] 52.1% | viability, T/C [52] 40.2% | viability, T/C [21] 38.2% | viability, T/C [53] 42.7% | viability, T/C [54] 41.5% | viability, T/C [55] 33.8% | viability, T/C [25] 31.4% | viability, T/C [56] 25.1% | viability, T/C [27] 24.9%
< 0.999 nM: IC50 (second compound 3.16 µM) | IC50 (second compound 10 µM)
45 nM: IC50 (second compound 1 µM)
24.6 nM: IC50 (second compound 0.1 µM)
